Patent publication US9096556B2, “Amorphous ritonavir co-precipitated” (HETERO RESEARCH FOUNDATION, priority 2011, dated 2015)

Assay: Solid-state stability of the amorphous form
Assay type: physicochemical

stability of the amorphous form: unstable
time until the amorphous material changed into molten state: ≤ 30 min
SMILES: CC(C)c1nc(CN(C)C(=O)N[C@H](C(=O)N[C@@H](Cc2ccccc2)C[C@H](O)[C@H](Cc2ccccc2)NC(=O)OCc2cncs2)C(C)C)cs1 [(5S,8S,10S,11S)-10-Hydroxy-2-methyl-5-(1-methylethyl)-1-[2-(1-methylethyl)-4-thiazolyl]-3,6-dioxo-8,11-bis(phenylmethyl)-2,4,7,12-tetraazatridecan-13-oic acid 5-thiazolylmethyl ester]
